Laboratory results published in publication PMC10406450 (Frontiers in Endocrinology, 2023).

System: CHO-hGLP-1R cells
Test: Cell viability assay (resazurin)
Type: cell-based, Chinese hamster
Details: 48 h treatment, then 5 h resazurin dye, fluorescence 590 nm, concentrations up to 1000-fold above the EC50, 3 independent experiments
Method: CHO-hGLP-1R cells described above were plated at 10 000 cells per well in 96-well black clear-bottom poly-d-lysine-coated microtiter plates (Corning, USA). Growth medium comprised DMEM supplemented with 10% FBS (Sigma-Aldrich). […] Fluorescence emission was measured at 590 nm (560 nm excitation) using an Envision plate reader (Perkin Elmer, USA).

## CN[C@@H]1C[C@H]2O[C@@](C)([C@@H]1OC)n1c3ccccc3c3c4c(c5c6ccccc6n2c5c31)C(=O)NC4 [staurosporine]
  cytotoxicity (cell viability): expected effect on loss of cell viability
